Measured values: the supplement of paper PMC6335503
± gives the standard deviation of the averaged measurements.

Assays:
Assay in all cases: cell viability, percent of DMSO control (CellTiter-Glo); higher = more viable cells
Conditions in all cases: 72 h
[1] = test system: DFTD cell line T1 (06/2887)
Method: (§1)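 Eight-point dose titration of 41 screen hits in triplicate wells on four Tasmanian devil DFTD tumour cell lines (T1-T4) and devil fibroblasts, 384-well plates. Viability was read by CellTiter-Glo (ATP) after 72 h at 37 °C. Percent of control per plate: DMSO wells = 100%, positive-control wells = 0%.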

[2] = test system: DFTD cell line T2 (05/2569)
Method: as §1

[3] = test system: DFTD cell line T3 (06/0368)
Method: as §1

[4] = test system: DFTD cell line T4 (07/0192)
Method: as §1

COc1cc2ncnc(Nc3ccc(O)c(Br)c3)c2cc1OC [WHI-P154]
cell viability [%]
Conditions | 0.00617 µM | 0.0185 µM | 0.0556 µM | 0.166667 µM | 0.5 µM | 1.5 µM | 4.5 µM | 13.5 µM
[1] | 90.9 ± 16 | 125 ± 11 | 103 ± 4.3 | 86 ± 8.7 | 46.2 ± 6.1 | 36.9 ± 1.8 | 25 ± 6.5 | 21.8 ± 7.4
[2] | 85 ± 18 | 116 ± 23 | 105 ± 11 | 95.7 ± 33 | 58.1 ± 7.2 | 45.3 ± 6.6 | 32.1 ± 2.2 | 20.6 ± 1.1
[3] | 76.9 ± 11 | 125 ± 22 | 98.1 ± 12 | 92 ± 8.6 | 67.7 ± 12 | 55.6 ± 19 | 40.4 ± 8.2 | 32.8 ± 2.4
[4] | 85.6 ± 27 | 134 ± 11 | 115 ± 8.3 | 84.5 ± 18 | 69 ± 21 | 42.4 ± 13 | 30.6 ± 2.3 | 19.7 ± 3

C=CC(=O)Nc1cc(Nc2ncc(Cl)c(-c3c[nH]c4ccccc34)n2)c(OC)cc1N(C)CCN(C)C [Mutant EGFR inhibitor]
cell viability [%]
Conditions | 0.00617 µM | 0.0185 µM | 0.0556 µM | 0.166667 µM | 0.5 µM | 1.5 µM | 4.5 µM | 13.5 µM
[1] | 94.7 ± 15 | 83.8 ± 16 | 62.6 ± 41 | 29.1 ± 1.2 | 26.6 ± 1.8 | 9.39 ± 10 | 1.63 ± 5.5 | 7.99 ± 6.1
[2] | 98.2 ± 20 | 93.9 ± 23 | 94.8 ± 32 | 50.8 ± 10 | 37.3 ± 3.5 | 16.6 ± 10 | 5.63 ± 3.1 | 11.5 ± 1.4
[3] | 87 ± 18 | 93 ± 18 | 86.5 ± 38 | 39.6 ± 1.6 | 38.2 ± 4.8 | 22 ± 11 | 12.8 ± 3.7 | 26.6 ± 4.2
[4] | 75.6 ± 22 | 86.8 ± 26 | 89 ± 42 | 35.9 ± 5.8 | 20.9 ± 7 | 6.23 ± 8.1 | 3.77 ± 2.2 | 19.9 ± 7.9

C=CC(=O)Nc1cc2c(Nc3ccc(F)c(Cl)c3)ncnc2cc1OCCCN1CCOCC1 [Canertinib (CI-1033)]
cell viability [%]
Conditions | 0.00617 µM | 0.0185 µM | 0.0556 µM | 0.166667 µM | 0.5 µM | 1.5 µM | 4.5 µM | 13.5 µM
[1] | 118 ± 15 | 106 ± 15 | 109 ± 38 | 98.1 ± 29 | 42.6 ± 10 | 18.3 ± 6.8 | 18.2 ± 11 | 8.82 ± 8.1
[2] | 120 ± 21 | 106 ± 19 | 116 ± 46 | 98 ± 30 | 91.1 ± 8.2 | 33.5 ± 13 | 33.7 ± 6.4 | 13.8 ± 4.8
[3] | 92.6 ± 2.1 | 110 ± 15 | 113 ± 33 | 110 ± 31 | 89 ± 28 | 49.7 ± 10 | 32.5 ± 10 | 38.9 ± 6.2
[4] | 104 ± 6 | 107 ± 12 | 107 ± 19 | 107 ± 14 | 86.1 ± 23 | 39.8 ± 11 | 24 ± 15 | 21 ± 8.1

COc1cc2ncnc(Nc3ccc(F)c(Cl)c3)c2cc1NC(=O)/C=C/CN1CCCCC1
cell viability [%]
Conditions | 0.00617 µM | 0.0185 µM | 0.0556 µM | 0.166667 µM | 0.5 µM | 1.5 µM | 4.5 µM | 13.5 µM
[1] | 97.4 ± 26 | 108 ± 39 | 94.3 ± 19 | 58.2 ± 6.1 | 36.2 ± 4 | 27.5 ± 6.9 | 30.8 ± 20 | 19.8 ± 14
[2] | 112 ± 30 | 95.2 ± 46 | 106 ± 12 | 90.6 ± 2.5 | 81.1 ± 22 | 51 ± 8.7 | 49.8 ± 13 | 50.5 ± 13
[3] | 108 ± 16 | 97.5 ± 14 | 91.6 ± 18 | 77.7 ± 1.5 | 39.7 ± 5.3 | 38.3 ± 3.5 | 27.9 ± 7 | -10.9 ± 5.5
[4] | 107 ± 7.5 | 96.2 ± 33 | 88 ± 13 | 77.2 ± 1.9 | 25 ± 6.3 | 26.5 ± 3.8 | 11.7 ± 14 | -11.1 ± 6

Cc1cc(Nc2ncnc3ccc(NC4=NC(C)(C)CO4)cc23)ccc1Oc1ccn2ncnc2c1 [Irbinitinib(ARRY-380; ONT-380)]
cell viability [%]
Conditions | 0.00617 µM | 0.0185 µM | 0.0556 µM | 0.166667 µM | 0.5 µM | 1.5 µM | 4.5 µM | 13.5 µM
[1] | 113 ± 14 | 111 ± 4.5 | 94.9 ± 27 | 89.7 ± 20 | 41.5 ± 14 | 30.3 ± 8.6 | 33 ± 14 | 33.4 ± 1.7
[2] | 102 ± 24 | 90.6 ± 12 | 98.1 ± 10 | 95.7 ± 9.6 | 65.7 ± 19 | 45.7 ± 14 | 50.6 ± 22 | 42.5 ± 2.8
[3] | 112 ± 5.4 | 116 ± 13 | 111 ± 14 | 98.9 ± 19 | 67.1 ± 12 | 54.9 ± 8.6 | 45.3 ± 7.3 | 48.6 ± 9.9
[4] | 106 ± 7.2 | 109 ± 16 | 105 ± 17 | 92.6 ± 7.2 | 60.1 ± 7 | 46.2 ± 3.3 | 43.5 ± 9.6 | 36.6 ± 9.5

Nc1ccc(F)cc1NC(=O)c1ccc(CNC(=O)/C=C/c2cccnc2)cc1 [Chidamide]
cell viability [%]
Conditions | 0.0309 µM | 0.0926 µM | 0.277778 µM | 0.833333 µM | 2.5 µM | 7.5 µM | 22.5 µM | 67.5 µM
[1] | 111 ± 10 | 97.4 ± 13 | 38.5 ± 12 | 28.7 ± 7 | 9.38 ± 5.5 | -0.502 ± 7.4 | 13.2 ± 7.4 | 18.1 ± 14
[2] | 102 ± 30 | 79.7 ± 10 | 69.8 ± 22 | 29.6 ± 7.4 | 11.9 ± 11 | 9.75 ± 5.5 | 7.82 ± 16 | 9.23 ± 3.7
[3] | 102 ± 16 | 78.9 ± 11 | 56.3 ± 11 | 39 ± 4 | 18.9 ± 11 | 18.2 ± 10 | 14.3 ± 17 | 11.1 ± 4.7
[4] | 112 ± 11 | 101 ± 8 | 83 ± 17 | 48.5 ± 5.6 | 22.2 ± 5.1 | 19.1 ± 8.8 | 15.3 ± 4.3 | 20.2 ± 3

C#Cc1cccc(Nc2ncnc3cc(OCCOC)c(OCCOC)cc23)c1 [Erlotinib]
cell viability [%]
Conditions | 0.0123 µM | 0.037 µM | 0.111111111 µM | 0.333333 µM | 1 µM | 3 µM | 9 µM | 27 µM
[1] | 108 ± 6.9 | 104 ± 26 | 113 ± 47 | 101 ± 19 | 57.3 ± 2.2 | 35.3 ± 10 | 19.8 ± 4.6 | 17 ± 4.6
[2] | 104 ± 9.1 | 80.4 ± 11 | 102 ± 39 | 89.2 ± 29 | 72.1 ± 5.6 | 46.1 ± 12 | 24.3 ± 3.5 | 34.5 ± 18
[3] | 101 ± 5 | 108 ± 18 | 99.9 ± 13 | 81.5 ± 14 | 68.8 ± 2.5 | 49.3 ± 5.8 | 33.1 ± 6 | 40.5 ± 7.9
[4] | 88.3 ± 27 | 115 ± 10 | 117 ± 37 | 79.3 ± 5.9 | 85.1 ± 12 | 43.3 ± 7.7 | 24.4 ± 7.9 | 22 ± 2.9

COc1cc2ncnc(Nc3cccc(Cl)c3F)c2cc1OC(=O)N1CCN(C)C[C@H]1C [AZD3759]
cell viability [%]
Conditions | 0.00617 µM | 0.0185 µM | 0.0556 µM | 0.166667 µM | 0.5 µM | 1.5 µM | 4.5 µM | 13.5 µM
[1] | 96.9 ± 29 | 110 ± 19 | 113 ± 33 | 95.3 ± 21 | 59.1 ± 10 | 38.1 ± 7.5 | 22.6 ± 2.7 | 31.5 ± 6.1
[2] | 97.6 ± 42 | 107 ± 12 | 131 ± 45 | 121 ± 35 | 81.8 ± 18 | 48.9 ± 4.4 | 22.9 ± 7.3 | 32 ± 4.3
[3] | 96.2 ± 18 | 89.5 ± 4.7 | 122 ± 15 | 107 ± 34 | 76.4 ± 20 | 52.8 ± 6.2 | 37.7 ± 7 | 41.7 ± 7.3
[4] | 102 ± 12 | 96.5 ± 23 | 111 ± 24 | 109 ± 10 | 78.4 ± 14 | 55 ± 5.2 | 28.7 ± 6.5 | 25 ± 3.8
